A melting point compilation (Tetko et al.; mined from patent text by program, amines drawn as free bases though some values may be those of a salt)

In the case of `Cc1c(-c2ccccc2)c(N2CC[C@](C)(N)C2)c2oc(C(=O)N(C)C)nc2c1C#N`, the melting point is reported as 202 to 204 °C. In the case of `CCCCc1nc(Cl)c(COC)n1Cc1ccc2oc(-c3ccccc3-c3nnn[nH]3)c(Br)c2c1`, the melting point is reported as 213 to 215 °C. Work on `Cc1[nH]cnc1Cc1cccc2c1OC(C)(C)OC2` yielded a melting point of 172 to 178 °C. For `COc1cc(OC)nc(NC(=O)NS(=O)(=O)c2ccccc2-c2nnn(C)n2)n1`, the melting point was 214 to 222 °C. `COc1cc(S(C)(=O)=O)ccc1-c1nc2cc3c(cc2[nH]1)NC(=O)C3(C)C` gave a melting point of 235 to 237 °C. For `Nc1cc(CN2CCC2)cc(C(F)(F)F)c1`, the melting point was 60 to 61 °C. In the case of `CC(=O)C(=O)C(=O)OC(C)(C)C`, the melting point is reported as 62 to 66 °C. `CC(=O)OC(C(C)C(C)C)C(OC(C)=O)C(C)C1CCC2C3CC(=O)C4CC=CCC4(C)C3CCC12C` (centres undefined) showed a melting point of 210 to 213 °C. Work on `CCCC(=O)Oc1ccc(S(=O)(=O)CS(N)(=O)=O)cc1` yielded a melting point of 160 to 161 °C. Work on `CCc1noc(-c2ncn(-c3cccc(Oc4ccc([N+](=O)[O-])cc4)c3)c2COC)n1` yielded a melting point of 126 to 127 °C. `COc1ccc(-c2cc3ccccc3[nH]2)cc1OC` gave a melting point of 188 °C. With `CNC(=O)N1N=C(c2ccc([N+](=O)[O-])cc2)c2cc(Cl)ccc2CC1C` (centres undefined) the melting point was 190 to 192 °C. Compound `Cn1ncc(/C=C/C(=O)Nc2ccc(Cc3nc(C(N)=O)cs3)cc2)c1-c1ccc(F)cc1` has a melting point of 159 to 160 °C. Work on `COc1ccc(Cc2ncc(CN3CCN(c4ccccc4OC)CC3)c3cc(OC)c(OC)cc23)cc1OC` yielded a melting point of 117 to 119 °C. Compound `Cc1ccc(Oc2ccc(C3NC(C(=O)O)CS3)cc2C#N)c(O)c1` (centres undefined) has a melting point of 150 to 152 °C. For `O=[N+]([O-])c1cccc(C(O)CO)c1` (racemic), the melting point was 45 °C. With `CC12CCC(=O)C=C1CCC1C2=CCC2(C)C(=C(Cl)C(Cl)S(=O)c3ccccc3)CCC12` (centres undefined) the melting point was 133 to 134 °C. With `Cn1ncc(/C=C/C(=O)Nc2ccc(Cc3nccs3)cc2)c1-c1ccc(F)cc1` the melting point was 209 to 210 °C. With `CCOC(=O)C(C(=O)NCc1ccccc1)=C1SC=CS1` the melting point was 79 to 81 °C. Work on `COC(=O)CCc1cc2cc(C(F)(F)F)ccc2n1S(=O)(=O)c1cccc2nc(C)sc12` yielded a melting point of 106 to 108 °C. In the case of `Nc1cc(O)ccc1Oc1ccccc1`, the melting point is reported as 156 to 157 °C. Compound `CC(C)(N)CNS(=O)(=O)c1ccccc1` has a melting point of 152 to 153 °C. `CN(Cc1cc(C(F)(F)F)cc(C(F)(F)F)c1)C(=O)c1cnc2ccc(Cl)cc2c1-c1ccccc1` gave a melting point of 105 to 106 °C. Work on `CCCCc1ccc(S(=O)(=O)Nc2nncs2)cc1` yielded a melting point of 120 to 121 °C. With `CC(O)=C(C#N)C(=O)c1ccc(F)cc1` the melting point was 65 to 67 °C. `COc1ccc(C2Sc3c(ccc4ccccc34)N(CCN(C)C)C(=O)C2OC(=O)c2ccc(OC)c(OC)c2)cc1` (centres undefined) showed a melting point of 182 to 183 °C. With `N=C(NO)c1nn(-c2c(Cl)cc(C(F)(F)F)cc2Cl)c(C=NO)c1SC(F)(F)F` the melting point was 68 to 72 °C. Compound `O=C(CC1CCCCC1=O)c1ccc(Cl)c(Cl)c1` (centres undefined) has a melting point of 78 to 79 °C. `Oc1ccc(OCCCCCCBr)cc1` showed a melting point of 43 to 45 °C. Work on `CSCCC(NCc1cc(Br)cc(Br)c1N)C(=O)O` (centres undefined) yielded a melting point of 212 °C. Compound `CCCc1nn(C)c2c(=O)n(CCCOc3ccc(OC(C)(C)C(=O)O)cc3)c(CC)nc12` has a melting point of 124 to 126 °C. Compound `CCN(CCN(CC)c1ccc(N=O)c(C)c1)c1ccc(N=O)c(C)c1` has a melting point of 157 °C. `CCOC(=O)C1=CNc2ccnn2C1` gave a melting point of 198 to 200 °C. In the case of `CCCCCCCNC(=O)Nc1ccccc1C(=O)Nc1cccnc1`, the melting point is reported as 144 °C. For `COc1cc2oc(=O)c(CCN3CCC(c4ccccc4)CC3)c(C)c2c(OC)c1OC`, the melting point was 117 to 118 °C. With `CCCCCCCCCCCCNc1cc(C)c(C)cc1N` the melting point was 53 to 54 °C. `CC(C)c1cccc2c1N(CC(=O)N1CC3CCC(CC3)C1)C(=O)C(NC(=O)Nc1cccc(-c3nnn[nH]3)c1)N=C2c1ccccc1F` (centres undefined) gave a melting point of 212 to 222 °C. For `COc1cccc(C2=C(c3cn4c5c(cccc35)CCC4)C(=O)NC2=O)c1`, the melting point was 99 to 101 °C. In the case of `O=[N+]([O-])c1oc2c(CCO)cccc2c1-c1ccccc1`, the melting point is reported as 133 to 136 °C. `CC[C@H]1CN(c2ccc3c(=O)c(C(=O)O)cn([C@@H]4C[C@@H]4F)c3c2C)C[C@H]1N` gave a melting point of 232 to 234 °C. In the case of `Cc1csc(N2CCN(Cc3ccc(C(=O)n4nccc4C)cc3)C2=O)n1`, the melting point is reported as 96 to 97 °C. `CC1(C)CCC(C)(C)c2cc(-c3cc(Br)cc(C(=O)O)c3)ccc21` showed a melting point of 165 °C. `CCN1C(=O)Cc2cc(C(=O)OC)ccc21` showed a melting point of 97 to 98 °C. `CC1(C)OC(c2ccc(S(N)(=O)=O)cc2)=C(I)C1=O` gave a melting point of 179 to 180 °C. In the case of `CCOC(=O)CC(=O)Nc1c(C(=O)OC)cccc1C(F)(F)F`, the melting point is reported as 87 °C. Compound `O=Cc1c(O)cccc1[N+](=O)[O-]` has a melting point of 52 to 53 °C. `COC(=O)c1ccc(Cc2cn(C)c3ccc(C=O)cc23)c(OC)c1` showed a melting point of 116 to 118 °C. `c1cn(Cc2nc(-c3ccc4c(c3)OCO4)c3cc4c(cc3n2)OCO4)cn1` showed a melting point of 182 to 185 °C. Compound `CNC(=O)CN1CCC2=C(C1)c1c(O)cc(C(C)C)cc1OC2(C)C` has a melting point of 178 to 190 °C. With `COC(=O)C(NS(=O)(=O)c1ccc(-c2ccc(NC(=O)c3oc4cccc(C5COC(C)(C)O5)c4c3C)cc2)cc1)C(C)C` (centres undefined) the melting point was 192 to 194 °C. With `Cc1nn(C)c2nc(N)[nH]c(=O)c2c1=O` the melting point was > 300 °C. Work on `OC(COc1ccc(-c2ccccc2I)cc1)CN1CCCC1` (centres undefined) yielded a melting point of 72 to 76 °C. For `O=C(C=Cc1ccc(CO)cc1)N1CCc2c([nH]c3ccccc23)C1c1ccc2c(c1)OCO2` (centres undefined), the melting point was 206 °C. In the case of `COc1ccc(-c2nnc(C(Cl)(Cl)Cl)o2)cc1OC`, the melting point is reported as 171 to 173 °C. `Cn1sc(=O)n(C)c1=O` showed a melting point of 64 to 65 °C. `COc1cc(OC)nc(NC(=O)NS(=O)(=O)c2ccccc2-c2nccn2C)n1` gave a melting point of 182 to 183 °C. `CSc1cc2c(cc1C(F)(F)F)N(C(=O)Nc1cccc(-c3csc(-c4cccnc4)n3)c1)CC2` gave a melting point of 154 to 155 °C. Work on `CCCCCCCCCCCCCCC(O)CO` (centres undefined) yielded a melting point of 76 to 77 °C. `COc1ccc(OC)c(-c2ccc(C)cc2)c1` gave a melting point of 65 to 66 °C. Compound `COc1ccc(Cl)c(S(=O)(=O)NC(=O)c2cn3cc(C(F)(F)F)cc(Cl)c3n2)c1` has a melting point of 211 to 212 °C. For `Cc1ccc2c(=O)[nH]c(=O)n(C(C)C)c2c1`, the melting point was 250 to 251 °C. `CC(=O)Nc1ccc2c(c1)S(=O)(=O)N=C(NC(C)C)N2` showed a melting point of 260 to 262 °C. Compound `COc1c(NC(=O)c2ccc(C)c(-n3cc(C(=O)Cl)nn3)c2)cc(C(C)(C)C)cc1NS(C)(=O)=O` has a melting point of 205 to 207 °C. Compound `COC(=O)CCCc1cc2nc(Cl)ccc2n1S(=O)(=O)c1ccc(-c2ccccc2)cc1` has a melting point of 122 to 124 °C. Work on `COC12c3ccc(Cl)cc3CC1SC(=CN)N2C` (centres undefined) yielded a melting point of 65 to 70 °C. Work on `CC1(C)C(=O)N(c2ccc(C#N)c(C(F)(F)F)c2)C(=S)N1CCCCO` yielded a melting point of 78 to 79 °C. For `CCCCCCCCCCCCCCOc1cn(Cc2ccccc2)c(CBr)cc1=O`, the melting point was 135 to 137 °C. Work on `CCOC(=O)/C=C/c1cn(-c2ccccc2)nc1OCc1ccc(OCc2nc(-c3ccccc3)oc2C)cc1` yielded a melting point of 154 to 155 °C. Work on `COc1cc2c(cc1OCc1ccccc1)CCN(Cc1cccnc1)C2` yielded a melting point of 78 to 79 °C. Work on `C=CCc1cc2c(c(CC=C)c1O)S(=O)CN2CC=C` (centres undefined) yielded a melting point of 110 to 111 °C. Compound `O=C1Cc2ccccc2C(=O)N1Cc1ccccc1F` has a melting point of 140 to 144 °C. Work on `N#Cc1c(S(=O)(=O)C(F)(F)C(F)Cl)[nH]c2ccccc12` (centres undefined) yielded a melting point of 164 to 167 °C. `O=C1N(CCCCCl)CCN1c1ccccc1` showed a melting point of 47.5 to 49 °C. `C=C1SC(=O)N(c2ccc3cc(-c4ccc(O)c(C56CC7CC(CC(C7)C5)C6)c4)ccc3c2)C1=O` gave a melting point of 299 to 302 °C. With `C=C(C)C=COc1ccc(C(=O)C=Cc2ccc(OCC(=O)O)c(OC)c2)c(OCC(=O)O)c1` the melting point was > 200 °C. Work on `CCOC(=O)Cc1ccc2c(c1)sc1c(Cl)cccc12` yielded a melting point of 62 to 64 °C. In the case of `N#Cc1ccc(-c2ccno2)cc1`, the melting point is reported as 148 to 149 °C. `O=C(O)c1cccc(NC(=O)C(CS)CCCc2ccccc2)c1` (centres undefined) gave a melting point of 134 to 136 °C. For `CC(C)(C)C(=O)c1sc(N)nc1-c1ccc(P(=O)(O)O)o1`, the melting point was > 220 °C. For `CCOCc1nc2c(N)nc3ccccc3c2n1CCCCS(=O)(=O)Nc1ccc(OC)cc1`, the melting point was 229 to 230 °C. In the case of `c1cc(N=C2SCC3Cc4sccc4CN23)c2ccncc2c1` (racemic), the melting point is reported as 198 °C. Compound `CC(=O)OC1CCc2c(Nc3ccc(C#N)cc3)ncnc21` (centres undefined) has a melting point of 215 to 217 °C. Work on `CN(C(=O)Cn1c(-c2ccc(C(F)(F)F)cc2)nc2cccnc21)c1ccccc1` yielded a melting point of 158 to 159 °C. In the case of `CN1C(=O)CC[C@]2(C)c3ccc(Sc4ccc5cccc([N+](=O)[O-])c5n4)cc3CC[C@@H]12`, the melting point is reported as 199 to 200 °C. In the case of `c1ccc(Cc2nc(-c3ccncc3)cs2)cc1`, the melting point is reported as 88 to 89 °C. Compound `N#Cc1cn(-c2ccc(Cl)c(Cl)c2)c(=O)[nH]c1=O` has a melting point of 206 to 208 °C. For `C[Si](C)(C)C#Cc1cc2ccc(-n3nc4ccc5ccccc5c4n3)cc2oc1=O`, the melting point was 250 to 252 °C. For `O=C1NC(=O)c2c1c(-c1ccccc1Cl)cc1oc3ccc(O)cc3c21`, the melting point was 140 to 145 °C. In the case of `O=C(NC(=O)c1ccc(F)cc1Cl)Nc1ccc(C(F)(F)F)cc1F`, the melting point is reported as 194 °C. Compound `COc1ccc(NC(=O)N2CCC(C)C2=O)cc1` (centres undefined) has a melting point of 71 to 72 °C. `CCSc1ccc(/C=C(\NC(=O)c2ccc(OCC(C)C)cc2)C(=O)NCCO)cc1` gave a melting point of 153 to 155 °C. In the case of `O=C(O)C(Cc1ccccc1)Oc1ccc(-c2ccc(-c3c(Cc4ccccc4)oc4ccccc34)cc2)cc1Br` (centres undefined), the melting point is reported as 80 to 82 °C. `COc1ccc(O[C@@H]2CCNC[C@H]2O)c(Br)c1` (relative stereo) gave a melting point of 132 to 135 °C. With `Cc1oc(-c2ccco2)nc1COc1ccc(COc2nn(Cc3ccccc3)cc2C(=O)O)cc1OCc1ccccc1` the melting point was 184 to 185 °C. Work on `N[C@H]1CC[C@H](Nc2ccnc3cc(C(F)(F)F)ccc23)CC1` yielded a melting point of 186 °C. `Cc1nc(N)c(Br)c(NNCc2cncc(Br)c2)n1` showed a melting point of 221 to 222 °C. For `CCCC(Cc1ccccc1)c1nc2c([nH]1)c(=O)n(CCC)c(=O)n2CCC` (centres undefined), the melting point was 158 to 160 °C. For `O=c1[nH]c2c(I)c(Cl)c(Cl)c(I)c2[nH]c1=O`, the melting point was 353 to 354 °C. Work on `CCC(C)Cc1ccc(C(=O)O)cc1C#N` (centres undefined) yielded a melting point of 91.2 to 92.1 °C.
